In US20200407717A1, “METHODS OF MODULATING ANTISENSE ACTIVITY” (Ionis Pharmaceuticals, Inc., priority 2018, published 2020):
e = 2'-O-(2-methoxyethyl) (MOE); d = 2'-deoxy (DNA)

Key:
EGF-EGFR signaling = assay: EGFR signaling western blot (p-EGFR, p-ERK), A431 cells; type: cell-based; conditions: 2 μM for 16 hours
Procedure, shortened: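 A431 cells incubated 16 h with PS-ASO (2 μM where stated) or without PS-ASO, then EGF-treated and put through a pulse-chase protocol. Lysates resolved by SDS-PAGE and sequentially immunoblotted for phospho- and total EGFR and ERK.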

Malat1 RNA = assay: Antisense activity by RT-qPCR, Malat1, A431 cells; type: cell-based
Protocol: A431 cells were grown at 10,000 cells per well and pre-treated with a variety of growth factors to determine if the addition of exogenous growth factors affects antisense activity or uptake of modified antisense oligonucleotides in a cell. The growth factors used were EGF, insulin growth factor (IGF), transforming growth factor (TGF), […] (VEGF), hepatocyte growth factor (HGF), platelet growth factor (PGF) and fibroblasts growth factor (FGF). To test antisense activity, cells were treated for 4 hours with a growth factor or vehicle alone, and then treated with compound no. 25690 (complementary to Drosha), compound no. 395254 (complementary to Malat1), or vehicle alone. RNA was isolated from the cells and Drosha or Malat1 RNA levels were measured by RT-qPCR. Human primer probe set 13816 (forward sequence […], designated herein as SEQ ID NO: 3; reverse sequence […], designated herein as SEQ ID NO: 4; probe sequence […], designated herein as SEQ ID NO: 5) was used to measure Drosha mRNA levels and primer probe set RTS2736 (forward sequence […], designated herein as SEQ ID NO: 6; reverse sequence […], designated herein as SEQ ID NO: 7; probe sequence TGCCACATCGCCACCCCGT, designated herein as SEQ ID NO: 8) was used to measure Malat1 RNA levels. Drosha and Malat1 RNA levels were normalized to total RNA content, as measured by RIBOGREEN®. Results are presented in the tables below as normalized RNA levels, relative to untreated control cells.
A431 cells were treated with EGF or TGF at 200 ng/mL in the presence or absence of 1 μM of the EGFR tyrosine kinase inhibitor PD174265. The cells were then treated with compound no. 25690 or compound no. 395254 as in Example 8. Total RNA was isolated and analyzed by RT-qPCR, as in Example 8.
Following siRNA treatment, cells were treated with compound no. 25690 or compound no. 395254 in the presence or absence of EGF. 16 hours after treatment with a PS-ASO with or without EGF, cells were harvested, and RNA levels were analyzed via RT-qPCR as in Example 8.

Sequence: GGCATATGCAGATAATGTTC (sugars from the 5' end e5 d10 e5, all phosphorothioate, methylation of C not given here) [compound 395254]
- EGFR signaling (EGF-EGFR signaling): not be impacted
- Malat1 RNA (% Control) (Malat1 RNA; 2.0 nM, Control): 100.0 % Control
- Malat1 RNA (% Control) (Malat1 RNA; 2.0 nM, Control Luciferase siRNA): 100.0 % Control
- Malat1 RNA (% Control) (Malat1 RNA; 2.0 nM, Control Luciferase siRNA, Table 27): 100 % Control
- Malat1 RNA (% Control) (Malat1 RNA; 2.0 nM, Control luciferase + EGF): 100 % Control
- Malat1 RNA (% Control) (Malat1 RNA; 2.0 nM, Control, Table 21): 100.0 % Control
- Malat1 RNA (% Control) (Malat1 RNA; 2.0 nM, EGF): 100.0 % Control
- Malat1 RNA (% Control) (Malat1 RNA; 2.0 nM, EGFR siRNA-1): 100.0 % Control
- Malat1 RNA (% Control) (Malat1 RNA; 2.0 nM, EGFR siRNA-2): 100.0 % Control
- Malat1 RNA (% Control) (Malat1 RNA; 2.0 nM, EGFR siRNA-2 + EGF): 100 % Control
- Malat1 RNA (% Control) (Malat1 RNA; 2.0 nM, EGFR siRNA-2, Table 27): 100 % Control
- Malat1 RNA (% Control) (Malat1 RNA; 2.0 nM, TGF): 100.0 % Control
- Malat1 RNA (% Control) (Malat1 RNA; 2.0 nM, TGF+PD174265): 100.0 % Control
- Malat1 RNA (% Control) (Malat1 RNA; 2.0 nM, TGF, Table 21): 100.0 % Control
- Malat1 RNA (% Control) (Malat1 RNA; 3.9 nM, Control): 109.0 % Control
- Malat1 RNA (% Control) (Malat1 RNA; 3.9 nM, Control Luciferase siRNA): 72.7 % Control
- Malat1 RNA (% Control) (Malat1 RNA; 3.9 nM, Control Luciferase siRNA, Table 27): 110.2 % Control
- Malat1 RNA (% Control) (Malat1 RNA; 3.9 nM, Control luciferase + EGF): 108.2 % Control
- Malat1 RNA (% Control) (Malat1 RNA; 3.9 nM, Control, Table 21): 110.2 % Control
- Malat1 RNA (% Control) (Malat1 RNA; 3.9 nM, EGF): 76.0 % Control
- Malat1 RNA (% Control) (Malat1 RNA; 3.9 nM, EGFR siRNA-1): 108.4 % Control
- Malat1 RNA (% Control) (Malat1 RNA; 3.9 nM, EGFR siRNA-2): 90.4 % Control
- Malat1 RNA (% Control) (Malat1 RNA; 3.9 nM, EGFR siRNA-2 + EGF): 108.2 % Control
- Malat1 RNA (% Control) (Malat1 RNA; 3.9 nM, EGFR siRNA-2, Table 27): 105.2 % Control
- Malat1 RNA (% Control) (Malat1 RNA; 3.9 nM, TGF): 99.9 % Control
- Malat1 RNA (% Control) (Malat1 RNA; 3.9 nM, TGF+PD174265): 108.2 % Control
- Malat1 RNA (% Control) (Malat1 RNA; 3.9 nM, TGF, Table 21): 105.2 % Control
- Malat1 RNA (% Control) (Malat1 RNA; 7.8 nM, Control): 127.0 % Control
- Malat1 RNA (% Control) (Malat1 RNA; 7.8 nM, Control Luciferase siRNA): 81.9 % Control
- Malat1 RNA (% Control) (Malat1 RNA; 7.8 nM, Control Luciferase siRNA, Table 27): 99.3 % Control
- Malat1 RNA (% Control) (Malat1 RNA; 7.8 nM, Control luciferase + EGF): 91.2 % Control
- Malat1 RNA (% Control) (Malat1 RNA; 7.8 nM, Control, Table 21): 99.3 % Control
- Malat1 RNA (% Control) (Malat1 RNA; 7.8 nM, EGF): 98.1 % Control
- Malat1 RNA (% Control) (Malat1 RNA; 7.8 nM, EGFR siRNA-1): 103.1 % Control
- Malat1 RNA (% Control) (Malat1 RNA; 7.8 nM, EGFR siRNA-2): 85.1 % Control
- Malat1 RNA (% Control) (Malat1 RNA; 7.8 nM, EGFR siRNA-2 + EGF): 99.2 % Control
- Malat1 RNA (% Control) (Malat1 RNA; 7.8 nM, EGFR siRNA-2, Table 27): 105.2 % Control
- Malat1 RNA (% Control) (Malat1 RNA; 7.8 nM, TGF): 101.8 % Control
- Malat1 RNA (% Control) (Malat1 RNA; 7.8 nM, TGF+PD174265): 91.2 % Control
- Malat1 RNA (% Control) (Malat1 RNA; 7.8 nM, TGF, Table 21): 105.2 % Control
- Malat1 RNA (% Control) (Malat1 RNA; 15.6 nM, Control): 125.6 % Control
- Malat1 RNA (% Control) (Malat1 RNA; 15.6 nM, Control Luciferase siRNA): 61.0 % Control
- Malat1 RNA (% Control) (Malat1 RNA; 15.6 nM, Control Luciferase siRNA, Table 27): 87.2 % Control
- Malat1 RNA (% Control) (Malat1 RNA; 15.6 nM, Control luciferase + EGF): 67.2 % Control
- Malat1 RNA (% Control) (Malat1 RNA; 15.6 nM, Control, Table 21): 77.2 % Control
- Malat1 RNA (% Control) (Malat1 RNA; 15.6 nM, EGF): 96.4 % Control
- Malat1 RNA (% Control) (Malat1 RNA; 15.6 nM, EGFR siRNA-1): 98.4 % Control
- Malat1 RNA (% Control) (Malat1 RNA; 15.6 nM, EGFR siRNA-2): 82.5 % Control
- Malat1 RNA (% Control) (Malat1 RNA; 15.6 nM, EGFR siRNA-2 + EGF): 99.2 % Control
- Malat1 RNA (% Control) (Malat1 RNA; 15.6 nM, EGFR siRNA-2, Table 27): 97.2 % Control
- Malat1 RNA (% Control) (Malat1 RNA; 15.6 nM, TGF): 93.2 % Control
- Malat1 RNA (% Control) (Malat1 RNA; 15.6 nM, TGF+PD174265): 77.2 % Control
- Malat1 RNA (% Control) (Malat1 RNA; 15.6 nM, TGF, Table 21): 107.2 % Control
- Malat1 RNA (% Control) (Malat1 RNA; 31.3 nM, Control): 120.2 % Control
- Malat1 RNA (% Control) (Malat1 RNA; 31.3 nM, Control Luciferase siRNA): 47.0 % Control
- Malat1 RNA (% Control) (Malat1 RNA; 31.3 nM, Control Luciferase siRNA, Table 27): 76.3 % Control
- Malat1 RNA (% Control) (Malat1 RNA; 31.3 nM, Control luciferase + EGF): 58.7 % Control
- Malat1 RNA (% Control) (Malat1 RNA; 31.3 nM, Control, Table 21): 66.3 % Control
- Malat1 RNA (% Control) (Malat1 RNA; 31.3 nM, EGF): 111.9 % Control
- Malat1 RNA (% Control) (Malat1 RNA; 31.3 nM, EGFR siRNA-1): 67.4 % Control
- Malat1 RNA (% Control) (Malat1 RNA; 31.3 nM, EGFR siRNA-2): 57.7 % Control
- Malat1 RNA (% Control) (Malat1 RNA; 31.3 nM, EGFR siRNA-2 + EGF): 114.0 % Control
- Malat1 RNA (% Control) (Malat1 RNA; 31.3 nM, EGFR siRNA-2, Table 27): 95.9 % Control
- Malat1 RNA (% Control) (Malat1 RNA; 31.3 nM, TGF): 109.8 % Control
- Malat1 RNA (% Control) (Malat1 RNA; 31.3 nM, TGF+PD174265): 68.7 % Control
- Malat1 RNA (% Control) (Malat1 RNA; 31.3 nM, TGF, Table 21): 55.9 % Control
- Malat1 RNA (% Control) (Malat1 RNA; 62.5 nM, Control): 109.6 % Control
- Malat1 RNA (% Control) (Malat1 RNA; 62.5 nM, Control Luciferase siRNA): 33.2 % Control
- Malat1 RNA (% Control) (Malat1 RNA; 62.5 nM, Control Luciferase siRNA, Table 27): 67.2 % Control
- Malat1 RNA (% Control) (Malat1 RNA; 62.5 nM, Control luciferase + EGF): 54.2 % Control
- Malat1 RNA (% Control) (Malat1 RNA; 62.5 nM, Control, Table 21): 57.2 % Control
- Malat1 RNA (% Control) (Malat1 RNA; 62.5 nM, EGF): 85.9 % Control
- Malat1 RNA (% Control) (Malat1 RNA; 62.5 nM, EGFR siRNA-1): 45.0 % Control
- Malat1 RNA (% Control) (Malat1 RNA; 62.5 nM, EGFR siRNA-2): 43.6 % Control
- Malat1 RNA (% Control) (Malat1 RNA; 62.5 nM, EGFR siRNA-2 + EGF): 79.7 % Control
- Malat1 RNA (% Control) (Malat1 RNA; 62.5 nM, EGFR siRNA-2, Table 27): 77.2 % Control
- Malat1 RNA (% Control) (Malat1 RNA; 62.5 nM, TGF): 91.4 % Control
- Malat1 RNA (% Control) (Malat1 RNA; 62.5 nM, TGF+PD174265): 54.2 % Control
- Malat1 RNA (% Control) (Malat1 RNA; 62.5 nM, TGF, Table 21): 47.2 % Control
- Malat1 RNA (% Control) (Malat1 RNA; 125 nM, Control): 131.6 % Control
- Malat1 RNA (% Control) (Malat1 RNA; 125 nM, Control Luciferase siRNA): 18.9 % Control
- Malat1 RNA (% Control) (Malat1 RNA; 125 nM, Control Luciferase siRNA, Table 27): 44 % Control
- Malat1 RNA (% Control) (Malat1 RNA; 125 nM, Control luciferase + EGF): 37.0 % Control
- Malat1 RNA (% Control) (Malat1 RNA; 125 nM, Control, Table 21): 44.0 % Control
- Malat1 RNA (% Control) (Malat1 RNA; 125 nM, EGF): 62.3 % Control
